# In patent US10647713B2 (Nimbus Lakshmi, Inc., priority 2016, dated 2020):
# Molecular target: human TYK2 (JH2domain-pseudokinase) (Homo sapiens (Human), UniProt P29597)
# Assay: TYK2 JH2 Domain Binding Assay (KINOMEscan, DiscoveRx)
# Conditions: 11-point dilution, duplicate
# Outline: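 Kd from duplicate 11-point 3-fold dilutions starting at 30,000 nM, fitted by Hill equation with slope fixed at −1. Compounds (final 0.9% DMSO) displace DNA-tagged HEK293-expressed TYK2 JH2 fusion (<0.1 nM) from ligand-coated beads over 1 h at room temperature; eluted kinase read by qPCR.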
# Chain of human TYK2 (JH2domain-pseudokinase) (P29597 556-888): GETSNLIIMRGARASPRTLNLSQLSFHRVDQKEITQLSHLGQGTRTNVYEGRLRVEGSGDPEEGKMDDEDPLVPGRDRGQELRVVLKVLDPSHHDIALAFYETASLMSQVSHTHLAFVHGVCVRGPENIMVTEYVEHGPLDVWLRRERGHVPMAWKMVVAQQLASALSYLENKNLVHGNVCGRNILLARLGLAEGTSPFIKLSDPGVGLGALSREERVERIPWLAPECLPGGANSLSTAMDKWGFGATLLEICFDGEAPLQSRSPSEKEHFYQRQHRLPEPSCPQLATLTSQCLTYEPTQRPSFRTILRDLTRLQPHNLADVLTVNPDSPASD
row,Kd [nM],SMILES
1,> 10,"Cc1nc2c(Nc3ccc(-c4cnn(C)c4)cc3N(C)S(C)(=O)=O)cc(NC(=O)C3CC3(F)F)nc2[nH]1 (centres unmarked) [I-376, 2,2-difluoro-N-(2-methyl-7-((4-(1-methyl-1H-pyrazol-4-yl)-2-(N-methylmethylsulfonamido)phenyl)amino)-3H-imidazo[4,5-b]pyridin-5-yl)cyclopropane-1-carboxamide]"
2,0.1 to 0.5,"COc1c(Nc2cc(Nc3ccc(N4CCC4)c(C#N)n3)nc3[nH]c(C)nc23)cccc1-c1nnn(C)n1 [I-113, 3-(azetidin-1-yl)-6-((7-((2-methoxy-3-(2-methyl-2H-tetrazol-5-yl)phenyl)amino)-2-methyl-3H-imidazo[4,5-b]pyridin-5-yl)amino)picolinonitrile]"
3,> 10,"CS(=O)(=O)c1cc(C2CCC2)ccc1Nc1cc(NC(=O)[C@H]2CC2(F)F)nc2[nH]c(C(F)F)nc12 [I-319, (R)—N-(7-((4-cyclobutyl-2-(methylsulfonyl)phenyl)amino)-2-(difluoromethyl)-3H-imidazo[4,5-b]pyridin-5-yl)-2,2-difluorocyclopropane-1-carboxamide]"
4,1 to 10,"COc1cc(-c2cc(C)n(C)n2)ccc1Nc1cc(NC(=O)C2CC2)nc2[nH]c(C)nc12 [I-590, N-(7-((4-(1,5-dimethyl-1H-pyrazol-3-yl)-2-methoxyphenyl)amino)-2-methyl-3H-imidazo[4,5-b]pyridin-5-yl)cyclopropanecarboxamide]"
5,1 to 10,"Cc1nc2c(Nc3ccc(C4CCC4)cc3S(C)(=O)=O)cc(NC(=O)[C@@H]3CC3(F)F)nc2[nH]1 [I-411, (S)—N-(7-((4-cyclobutyl-2-(methylsulfonyl)phenyl)amino)-2-methyl-3H-imidazo[4,5-b]pyridin-5-yl)-2,2-difluorocyclopropane-1-carboxamide]"
6,< 0.1,"CS(=O)(=O)c1ccccc1Nc1cc(Nc2ccc(OC3CCOCC3)c(C#N)n2)nc2[nH]c(C(F)F)nc12 [I-623, 6-((2-(difluoromethyl)-7-((2-(methylsulfonyl)phenyl)amino)-3H-imidazo[4,5-b]pyridin-5-yl)amino)-3-((tetrahydro-2H-pyran-4-yl)oxy)picolinonitrile]"
7,0.5 to 1,COc1c(Nc2cc(Nc3cc4c(nn3)CCC4)nc3[nH]c(C(F)F)nc23)cccc1-c1ncnn1C [I-647]
8,1 to 10,"C#Cc1cccc(Nc2cc(Nc3ccccc3S(C)(=O)=O)c3nc(C(F)F)[nH]c3n2)n1 [I-546, 2-(difluoromethyl)-N5-(6-ethynylpyridin-2-yl)-N7-(2-(methylsulfonyl)phenyl)-3H-imidazo[4,5-b]pyridine-5,7-diamine]"
9,0.1 to 0.5,"CN=S(C)(=O)c1ccccc1Nc1cc(NC(=O)C2CC2)nc2[nH]c(C)nc12 (centres unmarked) [I-328, N-(7-((2-(N,S-dimethylsulfonimidoyl)phenyl)amino)-2-methyl-3H-imidazo[4,5-b]pyridin-5-yl)cyclopropanecarboxamide]"
10,< 0.1,"Cc1cn(C)nc1-c1ccc(Nc2cc(NC(=O)[C@@H]3C[C@@H]3F)nc3[nH]c(C(F)F)nc23)c(S(C)(=O)=O)c1 [I-406, (1 S,2S)—N-(2-(difluoromethyl)-7-((4-(1,4-dimethyl-1H-pyrazol-3-yl)-2-(methylsulfonyl)phenyl)amino)-3H-imidazo[4,5-b]pyridin-5-yl)-2-fluorocyclopropane-1-carboxamide]"
11,0.1 to 0.5,"Cc1nc2c(Nc3ccc(-c4cc(C)n(C)n4)cc3S(C)(=O)=O)cc(Nc3cccc(C#N)n3)nc2[nH]1 [I-583, 6-((7-((4-(1,5-dimethyl-1H-pyrazol-3-yl)-2-(methylsulfonyl)phenyl)amino)-2-methyl-3H-imidazo[4,5-b]pyridin-5-yl)amino)picolinonitrile]"
12,0.1 to 0.5,"Cc1nc2c(Nc3ccc(C4CCCO4)cc3S(C)(=O)=O)cc(Nc3ccc(C(C)C)c(C#N)n3)nc2[nH]1 (centres unmarked) [I-575, 3-isopropyl-6-((2-methyl-7-((2-(methylsulfonyl)-4-(tetrahydrofuran-2-yl)phenyl)amino)-3H-imidazo[4,5-b]pyridin-5-yl)amino)picolinonitrile]"
13,0.5 to 1,"Cc1cnc(-c2ccc(Nc3cc(Nc4cccc(C#N)n4)nc4[nH]c(C(F)F)nc34)c(S(C)(=O)=O)c2)s1 [I-513, 6-((2-(difluoromethyl)-7-((2-(methylsulfonyl)-4-(5-methylthiazol-2-yl)phenyl)amino)-3H-imidazo[4,5-b]pyridin-5-yl)amino)picolinonitrile]"
14,0.5 to 1,"COc1c(Nc2cc(Nc3cc(C)cc(C#N)n3)nc3[nH]c(C(F)F)nc23)cccc1-c1ccn(C)n1 [I-33, 6-((2-(difluoromethyl)-7-((2-methoxy-3-(1-methyl-1H-pyrazol-3-yl)phenyl)amino)-3H-imidazo[4,5-b]pyridin-5-yl)amino)-4-methylpicolinonitrile]"
15,1 to 10,Cc1nc2c(Nc3ccc(C4CC(C)(C)OC(C)(C)C4)cc3S(C)(=O)=O)cc(NC(=O)C3CC3)nc2[nH]1 [I-357]
16,< 0.1,CS(=O)(=O)c1ccccc1Nc1cc(Nc2ccc3c(n2)CCOC3)nc2[nH]c(C(F)F)nc12 [I-531]
17,0.1 to 0.5,CS(=O)(=O)c1cc(C2CC2)ccc1Nc1cc(NC(=O)C2CC2)nc2[nH]c(C(F)F)nc12 [I-203]
18,0.1 to 0.5,"Cc1nc2c(Nc3ccc(-c4c(C)nn(C)c4C)cc3S(C)(=O)=O)cc(NC(=O)C3CC3)nc2[nH]1 [I-447, N-(2-methyl-7-((2-(methylsulfonyl)-4-(1,3,5-trimethyl-1H-pyrazol-4-yl)phenyl)amino)-3H-imidazo[4,5-b]pyridin-5-yl)cyclopropanecarboxamide]"
19,< 0.1,"Cc1nc2c(Nc3ccccc3S(C)(=O)=O)cc(Nc3ccc(OC4CCOCC4)c(C#N)n3)nc2[nH]1 [I-624, 6-((2-methyl-7-((2-(methylsulfonyl)phenyl)amino)-3H-imidazo[4,5-b]pyridin-5-yl)amino)-3-((tetrahydro-2H-pyran-4-yl)oxy)picolinonitrile]"
20,1 to 10,"Cc1nc2c(Nc3ccc(-c4nn(C)cc4C)cc3S(C)(=O)=O)cc(NC(=O)C3CC3(C)C)nc2[nH]1 (centres unmarked) [I-363, N-(7-((4-(1,4-dimethyl-1H-pyrazol-3-yl)-2-(methylsulfonyl)phenyl)amino)-2-methyl-3H-imidazo[4,5-b]pyridin-5-yl)-2,2-dimethylcyclopropane-1-carboxamide]"
21,0.5 to 1,"COc1c(Nc2cc(Nc3ccc(N4CCCCC4)cn3)nc3[nH]cnc23)cccc1-c1ncn(C)n1 [I-6, N7-(2-methoxy-3-(1-methyl-1H-1,2,4-triazol-3-yl)phenyl)-N5-(5-(piperidin-1-yl)pyridin-2-yl)-3H-imidazo[4,5-b]pyridine-5,7-diamine]"
22,> 10,"COc1c(Nc2cc(NC(=O)C3CC3)nc3[nH]c(C(F)F)nc23)cccc1-n1cnc(C)n1 [I-51, N-(2-(difluoromethyl)-7-((2-methoxy-3-(3-methyl-1H-1,2,4-triazol-1-yl)phenyl)amino)-3H-imidazo[4,5-b]pyridin-5-yl)cyclopropanecarboxamide]"
23,1 to 10,"Cc1nc2c(Nc3ccc([C@H]4CCOC4)cc3S(C)(=O)=O)cc(NC(=O)C3CC3)nc2[nH]1 [I-292, (R)—N-(2-methyl-7-((2-(methylsulfonyl)-4-(tetrahydrofuran-3-yl)phenyl)amino)-3H-imidazo[4,5-b]pyridin-5-yl)cyclopropanecarboxamide]"
24,0.1 to 0.5,Cc1nc2c(Nc3ccc(-c4c(C)nn(C)c4C)cc3S(C)(=O)=O)cc(Nc3cccc(C#N)n3)nc2[nH]1 [I-355]
25,1 to 10,"CS(=O)(=O)c1cc([C@@H]2CCCOC2)ccc1Nc1cc(NC(=O)[C@@H]2CC2(F)F)nc2[nH]c(C(F)F)nc12 [I-438, (S)—N-(2-(difluoromethyl)-7-((2-(methylsulfonyl)-4-((S)-tetrahydro-2H-pyran-3-yl)phenyl)amino)-3H-imidazo[4,5-b]pyridin-5-yl)-2,2-difluorocyclopropane-1-carboxamide]"

row,SMILES,Kd [nM]
1,"Cc1cnc(-c2ccc(Nc3cc(Nc4cc5n(n4)CCOC5)nc4[nH]c(C(F)F)nc34)c(S(C)(=O)=O)c2)s1 [I-495, 2-(difluoromethyl)-N5-(6,7-dihydro-4H-pyrazolo[5,1-c][1,4]oxazin-2-yl)-N7-(2-(methylsulfonyl)-4-(5-methylthiazol-2-yl)phenyl)-3H-imidazo[4,5-b]pyridine-5,7-diamine]",0.1 to 0.5
2,"COc1ccccc1Nc1cc(NC(=O)C2CC2)nc2[nH]c(C)nc12 [I-106, N-(7-((2-methoxyphenyl)amino)-2-methyl-3H-imidazo[4,5-b]pyridin-5-yl)cyclopropanecarboxamide]",> 10
3,"CS(=O)(=O)c1cc([C@@H]2CCC(F)(F)CO2)ccc1Nc1cc(NC(=O)C2CC2)nc2[nH]c(C(F)F)nc12 [I-594, (S)—N-(2-(difluoromethyl)-7-((4-(5,5-difluorotetrahydro-2H-pyran-2-yl)-2-(methylsulfonyl)phenyl)amino)-3H-imidazo[4,5-b]pyridin-5-yl)cyclopropanecarboxamide]",0.1 to 0.5
4,"COC1CN(c2ccc(Nc3cc(NC(=O)C4CC4)nc4[nH]c(C(F)F)nc34)c(N(C)S(C)(=O)=O)c2)C1 [I-50, N-(2-(difluoromethyl)-7-((4-(3-methoxyazetidin-1-yl)-2-(N-methylmethylsulfonamido)phenyl)amino)-3H-imidazo[4,5-b]pyridin-5-yl)cyclopropanecarboxamide]",1 to 10
5,"Cc1csc(-c2ccc(Nc3cc(Nc4cc5n(n4)CCOC5)nc4[nH]c(C)nc34)c(S(C)(=O)=O)c2)n1 [I-477, N5-(6,7-dihydro-4H-pyrazolo[5,1-c][1,4]oxazin-2-yl)-2-methyl-N7-(2-(methylsulfonyl)-4-(4-methylthiazol-2-yl)phenyl)-3H-imidazo[4,5-b]pyridine-5,7-diamine]",0.1 to 0.5
6,"Cc1nc2c(Nc3ccc([C@H]4CCC(C)(C)CO4)cc3S(C)(=O)=O)cc(NC(=O)C3CC3)nc2[nH]1 [I-551, (R)—N-(7-((4-(5,5-dimethyltetrahydro-2H-pyran-2-yl)-2-(methylsulfonyl)phenyl)amino)-2-methyl-3H-imidazo[4,5-b]pyridin-5-yl)cyclopropanecarboxamide]",0.5 to 1
7,"C[S@@+]([O-])c1ccccc1Nc1cc(NC(=O)C2CC2)nc2[nH]c(C(F)F)nc12 [I-298, (R)—N-(2-(difluoromethyl)-7-((2-(methylsulfinyl)phenyl)amino)-3H-imidazo[4,5-b]pyridin-5-yl)cyclopropanecarboxamide]",> 10
